As usually defined, the IC50 is the concentration that inhibits the measured activity by half. By Kd is commonly meant a measure of binding affinity in units of concentration.

Counter-ions that a name gives are not always drawn. Bounds are passed on as bounds.

One test deals with T1, CDK1/CyclinB1 (Homo sapiens, UniProt P06493).
T1 construct: purchased Carna
Nature of the test: Lance Ultra KinaSelect Assay, CDK1. Format: biochemical. To be noted: ATP 20 μM, read-out: Inhibition (IC50) CDK1. How it is done:
(§1) This protocol describes how the Lance Ultra KinaSelect Assay was performed to determine half maximal inhibitory concentration (IC50) of compounds of general formula (I) and CDK/Cyclin complexes. The principle behind this enzymatic assay is based upon the phosphorylation of the ULight-Peptide Substrat. It is detected by using a specific EU-labeled anti-phospho peptide antibody. The binding of the Eu-labeled anti-phospho peptide antibody to the phosphorylated U Light labeled peptide gives rise to a FRET-signal. Binding of an inhibitor to the kinase prevents phosphorylation of the ULight-MBP Substrat, resulting in a loss of FRET.
(§2) The compounds of general formula (I) summarized in Table 5 were diluted from a 10 mM DMSO stock solution 1:10 in a total volume of 15 μL DMSO. This compound predilution was then serial diluted 1:3 over 8 steps in DMSO and briefly spun down. Each compound solution was now diluted 1:20 in Enzymatic Buffer (HEPES: 50 mM, pH: 7.5; MgCl2: 10 mM; EGTA: 1 mM; DTT: 2 mM; Tween-20: 0.01%), mixed thoroughly and spun down. For every sample, 2 μL of the diluted compound were mixed with 6 μL CDK/Cyclin/Substrat solution and […] in a well of a small volume 384 well plate (Corning Incorporated, Corning, N.Y., USA; order no. 3673). […] For positive controls, in each well 2 μL of DMSO solution (1% final DMSO assay concentration) was mixed with 6 μL CDK/Cyclin/Substrat (appropriate final concentration see Table 3) and 2 μL Tracer ATP solution (appropriate final concentration see Table 3). Positive and negative controls were calculated from at least 8 different sample wells. The 384 well plates were mixed in a Teleshaker plate mixer (Beckman Coulter, Brea, Calif., USA) at 2000 rpm for 40 sec, and incubated for 1 h at room temperature. Before reading, 10 μL detection buffer (Lance Detection Buffer 1×; EDTA: […]; Eu-Anti-P-MBP: see Table 3) was added. The FRET signal was measured at 340 nm excitation, 665 nm and 615 nm emission (for the kinase tracer and LanthaScreen Eu-AB, respectively) with an Envision spectrophotometer (Perkin Elmer, Waltham, Mass., USA) with 50 μs delay and 300 μs integration time. IC50 values were determined from the sigmoidal dose response curves with the software Quattro Workflow (Quattro GmbH, Munich, Germany).

A further test has as its target T2, CDK6/CyclinD3 (Homo sapiens, UniProt Q00534).
T2 construct: purchased Carna
Nature of the test: Lance Ultra KinaSelect Assay, CDK6. The settings on record: read-out: Inhibition (IC50) CDK6. Format: biochemical. How it is done: as §1, §2

The target of a further test is T3, CDK9 (Homo sapiens, UniProt P50750).
T3 construct: purchased Invitrogen
Nature of the test: Lance Ultra KinaSelect Assay, CDK9. Format: biochemical. The settings on record: read-out: Inhibition (IC50) CDK9. How it is done:
as §1, §2

Another test has as its target T4, CDK7/CyclinH/Mat1 (Homo sapiens, UniProt P50613).
T4 construct: purchased Carna Biosciences
As to the kind of experiment: LanthaScreen Eu Kinase Binding Assay, CDK7. To be noted: tracer 236, read-out: Affinity (Kd) CDK7. The method, boiled down:
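TR-FRET competition binding with Alexa Fluor 647 tracer and Eu-anti-GST antibody; e.g. CDK2/Cyclin A 15 nM with tracer 236 60 nM (working solutions). Kinase buffer: HEPES 20 mM pH 8.0, MgCl2 10 mM, DTT 1 mM, Brij-35 0.01%; 8-point 1:3 series, 1 h at room temperature; Kd from sigmoidal dose-response curves.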
For orientation: Time-resolved FRET reads energy transfer from a long-lived donor to a nearby acceptor.

T2 sequence (Q00534 whole entry): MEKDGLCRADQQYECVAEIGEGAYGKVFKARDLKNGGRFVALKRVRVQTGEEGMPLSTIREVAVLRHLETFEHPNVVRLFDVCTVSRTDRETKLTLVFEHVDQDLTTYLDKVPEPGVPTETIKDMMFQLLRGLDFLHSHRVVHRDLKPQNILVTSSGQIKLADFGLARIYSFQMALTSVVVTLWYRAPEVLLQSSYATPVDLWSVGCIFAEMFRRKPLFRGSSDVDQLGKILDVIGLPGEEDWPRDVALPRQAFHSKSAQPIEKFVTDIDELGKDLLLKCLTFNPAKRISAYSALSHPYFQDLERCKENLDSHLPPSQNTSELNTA
T2 sequence (P30281 whole entry partner): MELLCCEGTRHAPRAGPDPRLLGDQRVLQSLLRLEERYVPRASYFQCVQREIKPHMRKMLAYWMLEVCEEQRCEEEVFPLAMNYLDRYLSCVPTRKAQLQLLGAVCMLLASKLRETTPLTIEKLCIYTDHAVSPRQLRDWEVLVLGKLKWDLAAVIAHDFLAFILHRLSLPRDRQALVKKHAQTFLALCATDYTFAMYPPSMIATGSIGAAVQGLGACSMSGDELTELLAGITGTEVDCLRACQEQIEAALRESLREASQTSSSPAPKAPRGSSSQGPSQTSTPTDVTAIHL
T3 sequence (P50750 whole entry): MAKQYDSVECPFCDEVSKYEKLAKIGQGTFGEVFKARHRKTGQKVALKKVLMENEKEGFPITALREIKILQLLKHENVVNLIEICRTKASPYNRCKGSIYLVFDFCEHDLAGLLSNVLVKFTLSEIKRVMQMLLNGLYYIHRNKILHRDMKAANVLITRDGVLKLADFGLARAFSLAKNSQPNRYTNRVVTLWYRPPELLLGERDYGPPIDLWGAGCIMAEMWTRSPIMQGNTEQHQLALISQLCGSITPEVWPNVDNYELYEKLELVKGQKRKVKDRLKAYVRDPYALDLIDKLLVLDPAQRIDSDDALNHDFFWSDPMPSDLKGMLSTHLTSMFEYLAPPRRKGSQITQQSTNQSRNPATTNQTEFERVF
T4 sequence (P50613 whole entry): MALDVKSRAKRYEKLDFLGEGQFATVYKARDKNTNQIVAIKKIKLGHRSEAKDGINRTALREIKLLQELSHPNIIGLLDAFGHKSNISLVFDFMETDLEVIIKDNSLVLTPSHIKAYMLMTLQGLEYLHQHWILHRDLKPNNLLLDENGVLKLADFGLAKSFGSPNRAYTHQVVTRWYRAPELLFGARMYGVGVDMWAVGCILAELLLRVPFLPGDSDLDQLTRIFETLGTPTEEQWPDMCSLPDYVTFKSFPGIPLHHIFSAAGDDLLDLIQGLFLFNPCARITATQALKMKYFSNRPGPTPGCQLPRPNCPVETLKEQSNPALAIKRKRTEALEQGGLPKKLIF
T4 sequence (P51946 whole entry partner): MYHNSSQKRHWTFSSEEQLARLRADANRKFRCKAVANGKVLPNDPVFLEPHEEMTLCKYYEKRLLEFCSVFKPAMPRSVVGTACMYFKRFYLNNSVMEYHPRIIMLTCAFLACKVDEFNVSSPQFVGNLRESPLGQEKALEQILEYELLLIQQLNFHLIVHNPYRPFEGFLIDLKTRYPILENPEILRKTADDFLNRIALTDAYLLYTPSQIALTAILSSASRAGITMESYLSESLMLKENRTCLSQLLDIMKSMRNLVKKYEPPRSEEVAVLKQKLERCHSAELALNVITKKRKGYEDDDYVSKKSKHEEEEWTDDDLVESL
T4 sequence (P51948 whole entry partner): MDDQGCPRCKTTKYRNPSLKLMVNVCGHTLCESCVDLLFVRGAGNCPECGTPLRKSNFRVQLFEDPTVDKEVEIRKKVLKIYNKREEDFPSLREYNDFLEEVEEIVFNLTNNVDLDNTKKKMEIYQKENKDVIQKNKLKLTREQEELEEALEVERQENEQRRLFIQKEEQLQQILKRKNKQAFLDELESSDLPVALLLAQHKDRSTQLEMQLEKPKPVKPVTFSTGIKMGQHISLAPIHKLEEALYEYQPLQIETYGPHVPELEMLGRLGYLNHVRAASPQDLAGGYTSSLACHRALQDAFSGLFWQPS
T1 sequence (P06493 whole entry): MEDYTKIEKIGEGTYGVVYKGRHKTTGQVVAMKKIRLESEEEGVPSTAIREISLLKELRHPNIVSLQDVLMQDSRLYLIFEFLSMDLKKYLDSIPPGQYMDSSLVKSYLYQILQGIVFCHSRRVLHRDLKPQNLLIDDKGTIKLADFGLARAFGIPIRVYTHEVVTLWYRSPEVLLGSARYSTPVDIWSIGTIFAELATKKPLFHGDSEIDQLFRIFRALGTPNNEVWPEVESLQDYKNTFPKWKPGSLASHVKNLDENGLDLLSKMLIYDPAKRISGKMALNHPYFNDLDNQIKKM
T1 sequence (P14635 whole entry partner): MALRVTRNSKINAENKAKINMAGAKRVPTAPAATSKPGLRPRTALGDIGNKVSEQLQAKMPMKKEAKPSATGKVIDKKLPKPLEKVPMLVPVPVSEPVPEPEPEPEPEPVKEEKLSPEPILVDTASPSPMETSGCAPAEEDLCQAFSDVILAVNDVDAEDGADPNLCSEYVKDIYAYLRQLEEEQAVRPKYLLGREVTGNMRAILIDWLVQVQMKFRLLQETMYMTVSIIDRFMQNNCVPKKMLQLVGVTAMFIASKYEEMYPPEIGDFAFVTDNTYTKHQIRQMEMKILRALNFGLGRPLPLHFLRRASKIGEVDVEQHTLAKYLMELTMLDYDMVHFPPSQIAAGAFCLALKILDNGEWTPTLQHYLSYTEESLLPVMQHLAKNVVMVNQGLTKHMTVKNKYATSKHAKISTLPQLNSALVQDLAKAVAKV

For `COc1ccccc1-c1ncnc(Nc2cccc(CS(N)(=O)=O)c2)n1` [B1′, 3-[(4-(2-Methoxyphenyl)-1,3,5-triazin-2-yl)amino]benzenemethanesulfonamide trifluoroacetic acid salt], the IC50 on CDK1/CyclinB1 is 12 µM; at CDK6/CyclinD3, more than 10 µM; on CDK9, 0.0965 µM.
Consider `COc1cc(F)ccc1-c1ncnc(Nc2cccc(CS(N)(=O)=O)c2)n1` [B2′, 1-(3-{[4-(4-fluoro-2-methoxyphenyl)-1,3,5-triazin-2-yl]amino}phenyl)methanesulfonamide hydrochloride], for which the IC50 on CDK9 is 0.0104 µM.
`COc1cc(F)ccc1-c1ncnc(Nc2cccc(CS(N)(=O)=O)c2)n1` [B2″, 1-(3-{[4-(4-fluoro-2-methoxyphenyl)-1,3,5-triazin-2-yl]amino}phenyl)methanesulfonamide trifluoroacetic acid salt]: the figures for the IC50 at CDK1/CyclinB1, on CDK6/CyclinD3 and at CDK9 were 0.899 µM, more than 10 µM and 0.0116 µM, respectively.
The matching figures for `NS(=O)(=O)Cc1cccc(Nc2ncnc(-c3ccccc3OCc3ccccc3)n2)c1` [B13′, 3-[(4-(2-Benzyloxyphenyl)-1,3,5-triazin-2-yl)amino]benzenemethanesulfonamide trifluoroacetic acid salt]: 3.4 µM, more than 10 µM and 0.0057 µM.
Turning to `COc1ccccc1-c1ncnc(Nc2cccc(S(N)(=O)=O)c2)n1` [C1′, 3-[(4-(2-Methoxyphenyl)-1,3,5-triazin-2-yl)amino]benzenesulfonamide trifluoroacetic acid salt], the IC50 on CDK1/CyclinB1 was 1.35 µM; on CDK6/CyclinD3, more than 10 µM; on CDK9, 0.0207 µM. Moreover, the Kd at CDK7/CyclinH/Mat1 is more than 10 µM.
For `COc1ccccc1-c1ncnc(Nc2cccc(CS(N)(=O)=O)c2)n1` [Compound B1, 3-[(4-(2-Methoxyphenyl)-1,3,5-triazin-2-yl)amino]benzenemethanesulfonamide], the Kd on CDK7/CyclinH/Mat1 was more than 10 µM.
For `COc1cc(F)ccc1-c1ncnc(Nc2cccc(CS(N)(=O)=O)c2)n1` [Compound B2, 3-[(4-(4-Fluoro-2-methoxyphenyl)-1,3,5-triazin-2-yl)amino]benzenemethanesulfonamide], the IC50 on CDK9 was 0.0106 µM. In addition, on CDK7/CyclinH/Mat1, the Kd is more than 10 µM.
For `COc1ccc(F)cc1-c1ncnc(Nc2cccc(CS(N)(=O)=O)c2)n1` [Compound B3, 3-[(4-(5-Fluoro-2-methoxyphenyl)-1,3,5-triazin-2-yl)amino]benzenemethanesulfonamide], on CDK7/CyclinH/Mat1, the Kd was more than 10 µM.
In the case of `COc1cccc(F)c1-c1ncnc(Nc2cccc(CS(N)(=O)=O)c2)n1` [Compound B4, 3-[(4-(6-Fluoro-2-methoxyphenyl)-1,3,5-triazin-2-yl)amino]benzenemethanesulfonamide], the figures for the IC50 at CDK1/CyclinB1, on CDK6/CyclinD3 and at CDK9 were 5.68 µM, more than 10 µM and 0.201 µM, respectively. The Kd at CDK7/CyclinH/Mat1 is more than 10 µM.
Take `COc1cc(Cl)ccc1-c1ncnc(Nc2cccc(CS(N)(=O)=O)c2)n1` [Compound B6, 3-[(4-(4-Chloro-2-methoxyphenyl)-1,3,5-triazin-2-yl)amino]benzenemethanesulfonamide]: the IC50 at CDK1/CyclinB1 was more than 10 µM; at CDK6/CyclinD3 it was more than 10 µM; at CDK9, 0.0162 µM. At CDK7/CyclinH/Mat1, the Kd is more than 10 µM.
Turning to `CCOc1ccccc1-c1ncnc(Nc2cccc(CS(N)(=O)=O)c2)n1` [Compound B12, 3-[(4-(2-Ethoxyphenyl)-1,3,5-triazin-2-yl)amino]benzenemethanesulfonamide], the IC50 was 11.5 µM at CDK1/CyclinB1, more than 10 µM at CDK6/CyclinD3 and 0.102 µM at CDK9. In addition, on CDK7/CyclinH/Mat1, the Kd is more than 10 µM.
`NS(=O)(=O)Cc1cccc(Nc2ncnc(-c3ccccc3OCc3ccccc3)n2)c1` [Compound B13, 3-[(4-(2-Benzyloxyphenyl)-1,3,5-triazin-2-yl)amino]benzenemethanesulfonamide]: on CDK7/CyclinH/Mat1, the Kd was more than 10 µM.
With `NS(=O)(=O)Cc1cccc(Nc2ncnc(-c3ccccc3Oc3ccccc3)n2)c1` [Compound B14, 1-(3-{[4-(2-phenoxyphenyl)-1,3,5-triazin-2-yl]amino}phenyl)methanesulfonamide], on CDK9, the IC50 turned out to be 0.009 µM. Besides, the Kd on CDK7/CyclinH/Mat1 was more than 10 µM.
Consider `NS(=O)(=O)Cc1cccc(Nc2ncnc(-c3ccccc3OCc3ccncc3)n2)c1` [Compound B16, 3-[(4-(2-((4-Pyridinyl)methoxy)phenyl)-1,3,5-triazin-2-yl)amino]benzenemethanesulfonamide], for which the figures for the IC50 on CDK1/CyclinB1, at CDK6/CyclinD3 and on CDK9 were 6.77 µM, more than 10 µM and 0.009 µM, respectively. Moreover, the Kd on CDK7/CyclinH/Mat1 is more than 10 µM.
`COc1cnccc1-c1ncnc(Nc2cccc(CS(N)(=O)=O)c2)n1` [Compound B19, 3-[(4-(3-Methoxypyridin-4-yl)-1,3,5-triazin-2-yl)amino]benzenemethanesulfonamide]: on CDK7/CyclinH/Mat1, the equilibrium dissociation constant (Kd) is more than 10 µM.
For `COc1ccccc1-c1ncnc(Nc2cccc(CCS(N)(=O)=O)c2)n1` [Compound D1, 2-[3-((4-(2-Methoxyphenyl)-1,3,5-triazin-2-yl)amino)phenyl]ethanesulfonamide], the IC50 on CDK1/CyclinB1 was 2.58 µM; at CDK6/CyclinD3 it was more than 10 µM; at CDK9 it was 0.139 µM. Also, at CDK7/CyclinH/Mat1, the Kd was more than 10 µM.
As to `COc1cc(F)ccc1-c1ncnc(Nc2cccc(CCS(N)(=O)=O)c2)n1` [Compound D2, 2-[3-((4-(4-Fluoro-2-methoxyphenyl)-1,3,5-triazin-2-yl)amino)phenyl]ethanesulfonamide], the IC50 at CDK1/CyclinB1 was more than 10 µM; on CDK6/CyclinD3, more than 10 µM; on CDK9, 0.0128 µM. Also, the Kd at CDK7/CyclinH/Mat1 is more than 10 µM.
Take `COc1ccccc1-c1ncnc(Nc2cccc([N+](=O)[O-])c2)n1` [Compound H1, 4-(2-Methoxyphenyl)-N-(3-nitrophenyl)-1,3,5-triazine-2-amine]: the IC50 on CDK9 was determined as 0.194 µM. In addition, the Kd on CDK7/CyclinH/Mat1 is more than 30 µM.
Regarding `COc1ccccc1-c1ncnc(Nc2cccc(NS(C)(=O)=O)c2)n1` [Compound K1, N-[3-((4-(2-Methoxyphenyl)-1,3,5-triazin-2-yl)amino)phenyl]-methanesulfonamide], the IC50 at CDK1/CyclinB1 was more than 10 µM; on CDK6/CyclinD3, more than 10 µM; on CDK9, 0.072 µM. Moreover, the Kd at CDK7/CyclinH/Mat1 is more than 30 µM.
For `CCCS(=O)(=O)Nc1cccc(Nc2ncnc(-c3ccccc3OC)n2)c1` [Compound L1, N-[3-((4-(2-Methoxyphenyl)-1,3,5-triazin-2-yl)amino)phenyl]-propanesulfonamide], the IC50 on CDK1/CyclinB1 is more than 10 µM; on CDK6/CyclinD3, more than 10 µM; at CDK9, 0.111 µM. Also, the Kd on CDK7/CyclinH/Mat1 was more than 30 µM.
`COc1ccccc1-c1ncnc(Nc2ccccc2)n1` [Compound P1, 4-(2-Methoxyphenyl)-N-phenyl-1,3,5-triazine-2-amine]: the IC50 at CDK9 stood at 0.937 µM. In addition, at CDK7/CyclinH/Mat1, the Kd is more than 30 µM.

The values above are taken from US20130079345A1, “[…] ACTIVE DISUBSTITUTED TRIAZINE DERIVATIVES” (BAYER INTELLECTUAL PROPERTY GMBH, priority 2010, published 2013).
